The values below are quoted from earlier work in PubChem BioAssay AID1259409 (Chemical Carcinogenesis Research Information System (CCRIS), 2018).

SMILES strings stand for the structures.

For the data set, the system named is rodent chemically induced tumor inhibition, incidence and multiplicity. The data set can be described thus: CCRIS tumor inhibitor studies.

Consider `O=c1oc2c(O)c(O)cc3c(=O)oc4c(O)c(O)cc1c4c23`, for which the “tumour outcome (control, treated, inhibition, significance)” value is 55%, 33%, 40%, not significant (Carcinogen: BENZO[A]PYRENE, 50-32-8, Dose [Inhibitor]: 0, 2500 NMOL IN 200 µL ACETONE:METHANOL (45:55) ONCE APPLIED 5 MIN PRIOR TO CARCINOGEN DOSE (STUDY DURATION: 21 WK), Route [Inhibitor]: DERMAL, Species: MOUSE, Strain/Sex: CD-1/FEMALE, Target Tissue: Type of Lesion: SKIN: TUMOR, Dose [Carcinogen]: 50 NMOL IN ACETONE:DMSO (90:10) ONCE, Promoter: 12-O-TETRADECANOYLPHORBOL-13-ACETATE, 16561-29-8); 18/18 (100%), 4/6 (67%), 33%, not significant (Carcinogen: BENZO[A]PYRENE, 50-32-8, Dose [Inhibitor]: 100 MG/KG ADMINISTERED 1 HR BEFORE AND 6, 24, AND 48 HR AFTER BENZO[A]PYRENE TREATMENT (STUDY DURATION: 6 MO), Route [Inhibitor]: INTRAPERITONEAL, Species: MOUSE, Strain/Sex: STRAIN-A/MALE, Target Tissue: Type of Lesion: LUNG: ADENOMA, Dose [Carcinogen]: 100 MG/KG ONCE, Promoter: NONE USED); 18/18 (100%), 4/6 (67%), 33%, not significant (Carcinogen: BENZO[A]PYRENE, 50-32-8, Dose [Inhibitor]: 100 MG/KG ADMINISTERED 1 HR BEFORE AND 6, 24, AND 48 HR AFTER CARCINOGEN TREATMENT FOLLOWED BY 6 MO OBSERVATION PERIOD (, Route [Inhibitor]: INTRAPERITONEAL, Species: MOUSE, Strain/Sex: STRAIN-A/MALE, Target Tissue: Type of Lesion: LUNG: ADENOMA, Dose [Carcinogen]: 100 MG/KG ONCE, Promoter: NONE USED); 18/18 (100%), 19/19 (100%), 0%, not significant (Carcinogen: BENZO[A]PYRENE, 50-32-8, Dose [Inhibitor]: 100 MG/KG STARTING 5 D BEFORE AND CONTINUING THROUGH 10 D AFTER CARCINOGEN TREATMENT (STUDY DURATION: 6 MO), Route [Inhibitor]: ORAL, Species: MOUSE, Strain/Sex: STRAIN-A/MALE, Target Tissue: Type of Lesion: LUNG: ADENOMA, Dose [Carcinogen]: 100 MG/KG ONCE, Promoter: NONE USED); 18/18 (100%), 19/19 (100%), 0%, not significant (Carcinogen: BENZO[A]PYRENE, 50-32-8, Dose [Inhibitor]: 100 MG/KG/D IN DIET STARTING 5 D BEFORE AND CONTINUING TO 10 D AFTER CARCINOGEN TREATMENT FOLLOWED BY 6 MO OBSERVATION P, Route [Inhibitor]: ORAL, Species: MOUSE, Strain/Sex: STRAIN-A/MALE, Target Tissue: Type of Lesion: LUNG: ADENOMA, Dose [Carcinogen]: 100 MG/KG ONCE, Promoter: NONE USED); 95%, 100%, -5%, not significant (Carcinogen: DIBENZO[A,H]PYRENE, 189-64-0, Dose [Inhibitor]: 0, 300 NMOL (TOTAL DOSE) APPLIED 10 MIN PRIOR TO CARCINOGEN DOSE INJECTED AS 1/7, 2/7, AND 4/7 OF THE TOTAL ON DAYS 1, 8, Route [Inhibitor]: INTRAPERITONEAL, Species: MOUSE, Strain/Sex: ICR/MALE,FEMALE, Target Tissue: Type of Lesion: LUNG: TUMOR, Dose [Carcinogen]: 50 NMOL (TOTAL DOSE) INJECTED IN DOSES OF 1/7, 2/7, AND 4/7 ON DAYS 1, 8, AND 15 OF LIFE, RESPECTIVELY, Promoter: NONE USED). The “tumour outcome (control, treated, inhibition, significance)” value was 100%, 100%, 0%, not significant (Carcinogen: DIETHYLNITROSAMINE, 55-18-5, Dose [Inhibitor]: 0, 900 MG/KG BW BY INTRAPERITONEAL INJECTION ON DAYS 13, 14 AND 15 OF AGE THEN 6 G/KG DIET FROM 21 TO 161 DAYS OF AGE (S, Route [Inhibitor]: INTRAPERITONEAL, ORAL, Species: MOUSE, Strain/Sex: C3H/MALE, Target Tissue: Type of Lesion: LIVER: ADENOMA, Dose [Carcinogen]: 4 MG/KG IN TRICAPRYLIN ONCE ON DAY 15 OF AGE, Promoter: NONE USED); 4/14 (29%), 1/12 (8%), 72%, not significant (Carcinogen: DIETHYLNITROSAMINE, 55-18-5, N-METHYLNITROSOUREA, 684-93-5, 1,2-DIMETHYLHYDRAZINE, 540-73-8, N-BUTYL-N-(4-HYDROXYB, Carcinogen: DIETHYLNITROSAMINE, 55-18-5, N-METHYLNITROSOUREA, 684-93-5, 1,2-DIMETHYLHYDRAZINE, 540-73-8, N-BUTYL-N-(4-HYDROXYB, Dose [Inhibitor]: 0, 1% IN DIET FOR 4 WK BEGINNING 1 DAY PRIOR TO CARCINOGEN TREATMENT (STUDY DURATION: 36 WK), Route [Inhibitor]: ORAL, Species: RAT, Strain/Sex: F344/MALE, Target Tissue: Type of Lesion: KIDNEY: ADENOMA, Dose [Carcinogen]: 100 MG/KG DEN ONCE, 20 MG/KG MNU 4 TIMES, 40 MG/KG DMH 4 TIMES, 0.05% BBN IN DRINKING WATER FOR 2 WK, 0.1% DHPN IN D, Dose [Carcinogen]: 100 MG/KG DEN ONCE, 20 MG/KG MNU 4 TIMES, 40 MG/KG DMH 4 TIMES, 0.05% BBN IN DRINKING WATER FOR 2 WK, 0.1% DHPN IN D, Promoter: NONE USED); 7/14 (50%), 5/12 (42%), 16%, not significant (Carcinogen: DIETHYLNITROSAMINE, 55-18-5, N-METHYLNITROSOUREA, 684-93-5, 1,2-DIMETHYLHYDRAZINE, 540-73-8, N-BUTYL-N-(4-HYDROXYB, Carcinogen: DIETHYLNITROSAMINE, 55-18-5, N-METHYLNITROSOUREA, 684-93-5, 1,2-DIMETHYLHYDRAZINE, 540-73-8, N-BUTYL-N-(4-HYDROXYB, Dose [Inhibitor]: 0, 1% IN DIET FOR 4 WK BEGINNING 1 DAY PRIOR TO CARCINOGEN TREATMENT (STUDY DURATION: 36 WK), Route [Inhibitor]: ORAL, Species: RAT, Strain/Sex: F344/MALE, Target Tissue: Type of Lesion: KIDNEY: NEPHROBLASTOMA, Dose [Carcinogen]: 100 MG/KG DEN ONCE, 20 MG/KG MNU 4 TIMES, 40 MG/KG DMH 4 TIMES, 0.05% BBN IN DRINKING WATER FOR 2 WK, 0.1% DHPN IN D, Dose [Carcinogen]: 100 MG/KG DEN ONCE, 20 MG/KG MNU 4 TIMES, 40 MG/KG DMH 4 TIMES, 0.05% BBN IN DRINKING WATER FOR 2 WK, 0.1% DHPN IN D, Promoter: NONE USED); 7/14 (50%), 5/12 (42%), 16%, not significant (Carcinogen: DIETHYLNITROSAMINE, 55-18-5, N-METHYLNITROSOUREA, 684-93-5, 1,2-DIMETHYLHYDRAZINE, 540-73-8, N-BUTYL-N-(4-HYDROXYB, Carcinogen: DIETHYLNITROSAMINE, 55-18-5, N-METHYLNITROSOUREA, 684-93-5, 1,2-DIMETHYLHYDRAZINE, 540-73-8, N-BUTYL-N-(4-HYDROXYB, Dose [Inhibitor]: 0, 1% IN DIET FOR 4 WK BEGINNING 1 DAY PRIOR TO CARCINOGEN TREATMENT (STUDY DURATION: 36 WK), Route [Inhibitor]: ORAL, Species: RAT, Strain/Sex: F344/MALE, Target Tissue: Type of Lesion: LARGE INTESTINE: ADENOMA, Dose [Carcinogen]: 100 MG/KG DEN ONCE, 20 MG/KG MNU 4 TIMES, 40 MG/KG DMH 4 TIMES, 0.05% BBN IN DRINKING WATER FOR 2 WK, 0.1% DHPN IN D, Dose [Carcinogen]: 100 MG/KG DEN ONCE, 20 MG/KG MNU 4 TIMES, 40 MG/KG DMH 4 TIMES, 0.05% BBN IN DRINKING WATER FOR 2 WK, 0.1% DHPN IN D, Promoter: NONE USED); 3/14 (21%), 4/12 (33%), -57%, not significant (Carcinogen: DIETHYLNITROSAMINE, 55-18-5, N-METHYLNITROSOUREA, 684-93-5, 1,2-DIMETHYLHYDRAZINE, 540-73-8, N-BUTYL-N-(4-HYDROXYB, Carcinogen: DIETHYLNITROSAMINE, 55-18-5, N-METHYLNITROSOUREA, 684-93-5, 1,2-DIMETHYLHYDRAZINE, 540-73-8, N-BUTYL-N-(4-HYDROXYB, Dose [Inhibitor]: 0, 1% IN DIET FOR 4 WK BEGINNING 1 DAY PRIOR TO CARCINOGEN TREATMENT (STUDY DURATION: 36 WK), Route [Inhibitor]: ORAL, Species: RAT, Strain/Sex: F344/MALE, Target Tissue: Type of Lesion: LARGE INTESTINE: CARCINOMA, Dose [Carcinogen]: 100 MG/KG DEN ONCE, 20 MG/KG MNU 4 TIMES, 40 MG/KG DMH 4 TIMES, 0.05% BBN IN DRINKING WATER FOR 2 WK, 0.1% DHPN IN D, Dose [Carcinogen]: 100 MG/KG DEN ONCE, 20 MG/KG MNU 4 TIMES, 40 MG/KG DMH 4 TIMES, 0.05% BBN IN DRINKING WATER FOR 2 WK, 0.1% DHPN IN D, Promoter: NONE USED); 6/14 (43%), 1/12 (8%), 81%, not calculated (Carcinogen: DIETHYLNITROSAMINE, 55-18-5, N-METHYLNITROSOUREA, 684-93-5, 1,2-DIMETHYLHYDRAZINE, 540-73-8, N-BUTYL-N-(4-HYDROXYB, Carcinogen: DIETHYLNITROSAMINE, 55-18-5, N-METHYLNITROSOUREA, 684-93-5, 1,2-DIMETHYLHYDRAZINE, 540-73-8, N-BUTYL-N-(4-HYDROXYB, Dose [Inhibitor]: 0, 1% IN DIET FOR 4 WK BEGINNING 1 DAY PRIOR TO CARCINOGEN TREATMENT (STUDY DURATION: 36 WK), Route [Inhibitor]: ORAL, Species: RAT, Strain/Sex: F344/MALE, Target Tissue: Type of Lesion: SMALL INTESTINE: ADENOMA, Dose [Carcinogen]: 100 MG/KG DEN ONCE, 20 MG/KG MNU 4 TIMES, 40 MG/KG DMH 4 TIMES, 0.05% BBN IN DRINKING WATER FOR 2 WK, 0.1% DHPN IN D, Dose [Carcinogen]: 100 MG/KG DEN ONCE, 20 MG/KG MNU 4 TIMES, 40 MG/KG DMH 4 TIMES, 0.05% BBN IN DRINKING WATER FOR 2 WK, 0.1% DHPN IN D, Promoter: NONE USED).
